Laboratory results published in BindingDB's records for doi:10.3109/14756366.2013.765413 (Karunya University, 2014).

Assays:
[1] = molecular target: T1, DNA topoisomerase I/type IB small subunit (Leishmania donovani, UniProt E9B7X3+E9BRC0); test: Preincubation Relaxation Assay; conditions: pH 7.5
T1 sequence (E9B7X3 whole entry): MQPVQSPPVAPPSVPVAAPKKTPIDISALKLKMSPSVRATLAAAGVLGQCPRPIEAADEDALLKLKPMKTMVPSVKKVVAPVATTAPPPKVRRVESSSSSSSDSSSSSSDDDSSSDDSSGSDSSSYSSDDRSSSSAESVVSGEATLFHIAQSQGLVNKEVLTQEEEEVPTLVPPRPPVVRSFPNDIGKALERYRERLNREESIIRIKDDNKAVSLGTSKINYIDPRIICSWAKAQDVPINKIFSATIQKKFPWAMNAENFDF
T1 sequence (E9BRC0 whole entry): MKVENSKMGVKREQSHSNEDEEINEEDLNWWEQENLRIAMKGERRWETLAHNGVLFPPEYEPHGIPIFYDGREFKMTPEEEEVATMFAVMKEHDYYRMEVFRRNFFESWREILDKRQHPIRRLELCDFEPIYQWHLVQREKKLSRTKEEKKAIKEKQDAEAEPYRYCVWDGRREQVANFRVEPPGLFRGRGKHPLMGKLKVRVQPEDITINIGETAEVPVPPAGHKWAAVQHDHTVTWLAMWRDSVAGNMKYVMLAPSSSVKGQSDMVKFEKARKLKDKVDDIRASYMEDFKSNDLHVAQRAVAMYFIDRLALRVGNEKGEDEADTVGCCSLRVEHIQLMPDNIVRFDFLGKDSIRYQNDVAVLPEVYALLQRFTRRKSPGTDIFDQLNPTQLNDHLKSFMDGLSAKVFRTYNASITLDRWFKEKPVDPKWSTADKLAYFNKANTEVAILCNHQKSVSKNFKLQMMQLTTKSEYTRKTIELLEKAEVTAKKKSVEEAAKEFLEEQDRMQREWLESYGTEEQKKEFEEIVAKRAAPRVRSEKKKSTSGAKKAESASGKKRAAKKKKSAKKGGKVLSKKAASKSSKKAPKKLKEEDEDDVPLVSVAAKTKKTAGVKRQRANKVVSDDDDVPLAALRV
Protocol: In the preincubation assay, CPT concentrations were 50 and 100 μM, whereas various concentrations of compounds were 25, 50 and 100 μM. LdTOP1LS was preincubated with compounds 3a-d at different concentrations for 5 min at 37 °Cbefore the addition of substrate DNA. Relaxation assay was carried out as described previously with LdTOPILS serially diluted in the relaxation buffer (25mM Tris-HCl pH 7.5, 5% glycerol, 0.5mM DTT, 10mM MgCl2, 2.5mM EDTA and 150 mg/ml BSA) supercoiled pBluescript (SK ) DNA and 50mM KCl. The amount of supercoiled monomer DNA band fluorescence after ethidium bromide (EtBr) (0.5 mg/ml) staining was quantitated by using GEL Doc 2000 from Biorad (Hercules, CA, USA).

[2] = molecular target: T1, DNA topoisomerase I/type IB small subunit; test: Stimultaneous Relaxation Assay; conditions: pH 7.5
Protocol: In simultaneous relaxation assay, CPT concentrations were 50 and 100 μM, whereas concentration of compounds were 50, 100 and 200 μM. Relaxation assay was carried out as described previously with LdTOPILS serially diluted in the relaxation buffer (25mM Tris-HCl pH 7.5, 5% glycerol, 0.5mM DTT, 10mM MgCl2, 2.5mM EDTA and […]) supercoiled pBluescript (SK ) DNA and 50mM KCl. The amount of supercoiled monomer DNA band fluorescence after ethidium bromide (EtBr) ([…]) staining was quantitated by using GEL Doc 2000 from Biorad (Hercules, CA, USA).

Row | IC50 [1] [µM] | IC50 [2] [µM] | Compound
1 | 13 | 70 | O=C1C(O)=C(C(C2=C(O)C(=O)c3ccccc3C2=O)c2ccc(O)cc2)C(=O)c2ccccc21 [Bi-lawsone analog, 3d]
2 | 14 | – | COc1cc(C(C2=C(O)C(=O)c3ccccc3C2=O)C2=C(O)C(=O)c3ccccc3C2=O)ccc1O [Bi-lawsone analog, 3c]
3 | – | 37.5 | CN(C)c1ccc(C(C2=C(O)C(=O)c3ccccc3C2=O)C2=C(O)C(=O)c3ccccc3C2=O)cc1 [Bi-lawsone analog, 3b]
4 | 16 | 51 | O=C1C(O)=C(C(C2=C(O)C(=O)c3ccccc3C2=O)c2ccccc2)C(=O)c2ccccc21 [Bi-lawsone analog, 3a]
